What was measured:
Assay in all cases: LC-MS of product formed by Pichia cells expressing the enzyme
Assay type in all cases: cell-based
[1] = biological target: T1, BBE (EcBBE), berberine bridge enzyme (Eschscholzia californica, UniProt P30986); conditions: in vivo reaction, BMMY medium pH 6.0, 30 °C, 24 h; racemic substrate; vector control
T1 construct: gene BBE1; codon-optimized synthetic gene in pPIC3.5/pPIC3.5K; expressed in Pichia pastoris GS115; whole cells

[2] = biological target: T2, CYP719A5 (EcCYP719A5), cheilanthifoline synthase (Eschscholzia californica, UniProt B5UAQ8); conditions: in vivo reaction, BMMY medium pH 6.0, 30 °C, 24 h; vector control
T2 construct: codon-optimized synthetic gene in pPIC3.5/pPIC3.5K; expressed in Pichia pastoris GS115; whole cells, endogenous yeast reductase (no plant CPR)

[3] = biological target: T3, CYP719A2 (EcCYP719A2), stylopine synthase (Eschscholzia californica, UniProt C3SBS2); conditions: in vivo reaction, BMMY medium pH 6.0, 30 °C, 24 h; substrate supplied as CYP719A5 reaction product; vector control
T3 construct: codon-optimized synthetic gene in pPIC3.5/pPIC3.5K; expressed in Pichia pastoris GS115; whole cells, endogenous yeast reductase (no plant CPR)
T3 sequence (C3SBS2 entry or part of it): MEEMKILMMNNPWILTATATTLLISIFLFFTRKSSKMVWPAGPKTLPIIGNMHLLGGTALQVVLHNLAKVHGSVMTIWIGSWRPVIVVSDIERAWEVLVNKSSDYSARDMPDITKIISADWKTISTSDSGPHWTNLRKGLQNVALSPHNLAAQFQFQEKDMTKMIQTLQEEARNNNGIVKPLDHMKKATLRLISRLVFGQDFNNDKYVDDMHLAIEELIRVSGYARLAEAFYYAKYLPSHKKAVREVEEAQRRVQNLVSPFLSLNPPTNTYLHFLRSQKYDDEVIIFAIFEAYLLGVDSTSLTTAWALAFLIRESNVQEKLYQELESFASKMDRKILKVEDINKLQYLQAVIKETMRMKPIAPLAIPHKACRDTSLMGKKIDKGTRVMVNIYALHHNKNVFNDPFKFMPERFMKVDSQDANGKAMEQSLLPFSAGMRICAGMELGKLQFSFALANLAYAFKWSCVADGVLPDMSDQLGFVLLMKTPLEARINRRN

T1 sequence (P30986 24-538): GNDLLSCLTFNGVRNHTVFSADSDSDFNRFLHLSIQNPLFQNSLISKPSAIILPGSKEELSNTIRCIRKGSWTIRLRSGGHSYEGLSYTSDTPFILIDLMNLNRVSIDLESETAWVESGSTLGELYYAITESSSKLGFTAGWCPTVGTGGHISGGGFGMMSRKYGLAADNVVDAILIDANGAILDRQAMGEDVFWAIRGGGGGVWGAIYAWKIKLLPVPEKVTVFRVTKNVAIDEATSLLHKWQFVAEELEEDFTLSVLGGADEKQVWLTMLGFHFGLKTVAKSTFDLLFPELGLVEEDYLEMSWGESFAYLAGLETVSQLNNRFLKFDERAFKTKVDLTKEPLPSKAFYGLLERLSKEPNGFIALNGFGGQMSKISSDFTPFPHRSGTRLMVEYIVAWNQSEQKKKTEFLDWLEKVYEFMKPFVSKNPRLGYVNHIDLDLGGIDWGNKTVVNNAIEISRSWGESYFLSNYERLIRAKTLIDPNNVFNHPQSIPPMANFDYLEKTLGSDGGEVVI
T2 sequence (B5UAQ8 whole entry): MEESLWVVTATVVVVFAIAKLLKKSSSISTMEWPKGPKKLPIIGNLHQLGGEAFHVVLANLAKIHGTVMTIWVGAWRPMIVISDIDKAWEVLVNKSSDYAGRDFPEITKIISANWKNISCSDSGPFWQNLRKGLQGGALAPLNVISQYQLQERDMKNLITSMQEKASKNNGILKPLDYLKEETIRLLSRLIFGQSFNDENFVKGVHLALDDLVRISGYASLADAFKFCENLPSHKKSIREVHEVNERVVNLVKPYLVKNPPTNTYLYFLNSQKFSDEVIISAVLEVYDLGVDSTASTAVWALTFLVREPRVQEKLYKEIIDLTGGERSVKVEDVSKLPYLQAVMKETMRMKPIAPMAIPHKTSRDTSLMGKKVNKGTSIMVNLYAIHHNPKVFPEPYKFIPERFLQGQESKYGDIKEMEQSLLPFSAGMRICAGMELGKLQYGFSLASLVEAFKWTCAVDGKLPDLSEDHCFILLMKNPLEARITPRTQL

Structure (SMILES): COc1ccc(CC2c3cc(O)c(OC)cc3CCN2C)cc1O (racemic) [(R, S)-reticuline]
- LC-MS of product formed by Pichia cells expressing the enzyme [1]: reaction products of BBE and CYP719A5 (i.e., scoulerine from reticuline and cheilanthifoline from scoulerine)

Structure (SMILES): COc1cc2c(cc1O)[C@@H]1Cc3ccc(OC)c(O)c3CN1CC2 [(S)-scoulerine]
- LC-MS of product formed by Pichia cells expressing the enzyme [2]: The formation of cheilanthifoline by CYP719A5 from scoulerine was confirmed by the production of stylopine

Structure (SMILES): COc1cc2c(cc1O)[C@@H]1Cc3ccc4c(c3CN1CC2)OCO4 [cheilanthifoline]
- LC-MS of product formed by Pichia cells expressing the enzyme [3]: CYP719A5 reaction product (chielanthifoline) for CYP719A2 reaction

— PMC4770593, “Efficient microbial production of stylopine using a Pichia pastoris expression system” (Scientific Reports, 2016)
